Experimental data as given in article PMC6662714, “High-throughput identification of peptide agonists against GPCRs by co-culture of mammalian reporter cells and peptide-secreting yeast cells using droplet microfluidics” (Scientific Reports, 2019).

Key:
[1] = tested on: human GLP1R (hGLP1R); experiment: Functional cell-based assay, floating hGLP1R/LacZ-293 cells; conditions: 30 nM authentic Ex4, floating cells 5 × 10^3 cells/50 µL, RPMI-1640, 50 µM CMFDG, 37 °C, 12 h; n = 3; Fig. 3a
Description: To construct a reporter cell line that constitutively produces human GLP1R (hGLP1R) and inducibily secretes NanoLuc in response to the activation of hGLP1R, pIRES-hGLP1R, and pCRE-NLuc[13], were co-transfected in HEK293 cells (European Collection of Cell Culture, Salisbury, UK) using Xfect™ (Clontech Laboratries, Inc., Mountain View, CA, USA). The transfected cells were cultured in Dulbecco’s Modified Eagle Medium (DMEM) (Nacalai Tesque, Kyoto, Japan) containing 10% FBS (GE Healthcare, Little Chalfont, UK), 1% penicillin-streptomycin (Sigma-Aldrich, St. Louis, MO, USA), 400 µg/mL G418 (Nacalai Tesque), and 0.1 µg/mL puromycin (Wako Pure Chemical Industries, Osaka, Japan). The reporter cells were selected to establish a stable cell line harboring GLP1R and secretory NanoLuc genes (hGLP1R/NLuc-293)[13]. To construct a reporter cell line that secretes LacZ in response to the activation of hGLP1R, pIRES-hGLP1R[13], and pCRE-LacZ were co-transfected in HEK293 cells, and a reporter cell line, hGLP1R/LacZ-293, was selected using a medium containing G418 and puromycin. […]
An assay using floating hGLP1R/LacZ-293 was carried out using the following procedure. […] Immediately after the modification, the solution was placed in a 96-well plate and incubated at 37 °C for 12 h, and fluorescence intensity was measured.

[2] = tested on: human GLP1R (hGLP1R); experiment: Functional cell-based assay, adherent hGLP1R/NLuc-293 reporter cells (NanoLuc luminescence); conditions: DMEM, 37 °C, 12 h
Description: (§1) To construct a reporter cell line that constitutively produces human GLP1R (hGLP1R) and inducibily secretes NanoLuc in response to the activation of hGLP1R, pIRES-hGLP1R, and pCRE-NLuc[13], were co-transfected in HEK293 cells (European Collection of Cell Culture, Salisbury, UK) using Xfect™ (Clontech Laboratries, Inc., Mountain View, CA, USA). The transfected cells were cultured in Dulbecco’s Modified Eagle Medium (DMEM) (Nacalai Tesque, Kyoto, Japan) containing 10% FBS (GE Healthcare, Little Chalfont, UK), 1% penicillin-streptomycin (Sigma-Aldrich, St. Louis, MO, USA), 400 µg/mL G418 (Nacalai Tesque), and 0.1 µg/mL puromycin (Wako Pure Chemical Industries, Osaka, Japan). […]
To perform a functional assay using the adherent hGLP1R/NLuc-293 cell line, hGLP1R/NLuc-293 cells were seeded at 5 × 10^3 cells/100 µL in a 96-well plate (Thermo Fisher Scientific) and cultured at 37 °C for 24 h. […] Afterwards, 50 µL luciferase substrate (Nano-Glo™ Luciferase Assay System, Promega, Fitchburg, WI, USA) was added, and luminescence intensity was measured using a Fluoroskan Ascent™ Microplate Fluorometer (Thermo Fisher Scientific).
To verify the activities of the identified Ex4 variants, we prepared variant peptides using E. coli as follows. […] The calibration curve used for quantification was obtained with standard FLAG peptides (Wako Pure Chemical Industries).

[3] = tested on: GLP1R; conditions: cited from earlier work
Description: To investigate whether the activity of the peptides was not influenced by the post-translational modifications by yeast or differences in secretion efficiencies, WT Ex4 and Ex4 variants fused with an N-terminal FLAG sequence were produced using Escherichia coli. The peptides were purified using anti-FLAG resin, and reacted with enterokinase, which cleaves the peptides after the FLAG sequence to expose free N-terminal of Ex4 peptides. We added the purified WT Ex4 produced by E. coli with or without enterokinase reactions to the hGLP1R/NLuc-293 cells, and observed a significant increase in lumin ...

[4] = tested on: human GLP1R (hGLP1R); experiment: Functional cell-based assay, adherent hGLP1R/LacZ-293 reporter cells (LacZ fluorescence); conditions: DMEM, 50 µM CMFDG, 37 °C, 12 h
Description: as §1, with “Japan). The reporter cells were selected to establish a stable cell line harboring GLP1R and secretory NanoLuc genes (hGLP1R/NLuc-293)[13].” for “Japan).”
To perform a functional assay using the adherent hGLP1R/LacZ-293 cell line, hGLP1R/LacZ-293 cells were seeded at 5 × 10^3 cells/100 µL in a 96-well plate (Thermo Fisher Scientific) and cultured at 37 °C for 24 h. […] After 12 h incubation at 37 °C, fluorescence intensity was measured using Fluoroskan Ascent™ Microplate Fluorometer.

[5] = tested on: human GLP1R (hGLP1R); experiment: Functional cell-based assay in droplets (droplet microfluidics), hGLP1R/LacZ-293; conditions: 6 h, Fig. 4b; for fluorescence intensity of droplets: DMEM, 50 µM CMFDG, 30 °C, at least 70 droplets
Description: A single-inlet microfluidic device was designed according to previous reports[39],[40] (Fig. S1). In brief, polydimethylsiloxane (PDMS, Sylgard 184, Dow Corning Corp, Midland, MI, USA) and its cross-linker were mixed at a ratio of 10:1 (w/w), degassed, poured onto a master mold, and cured. The cured PDMS was peeled from the mold and punched with 0.75 mm biopsy punch (World Precision Instruments, Sarasota, FL, USA). The PDMS slab was bonded to a glass slide by plasma treatment (Plasma Cleaner PDG-32G; Harrick Scientific, Pleasantville, NY, USA), and baked for at least 30 min at 70 °C. The microfluidics device, an air compressor, Mitos P-Pump Basic (Dolomite, Charleston, MA, USA) were connected, and the pressure was set to be about 150 mbar for aqueous phase and about 300 mbar for oil phase. To generate droplets, cell suspension and a carrier phase (FC40 containing 5% (v/v) of the surfactant Pico-Surf1, Dolomite), were pumped into the cross-junction.
As a proof-of-principle experiment, hGLP1R/LacZ-293 was suspended at 5.0 × 10^6 cells/mL in the following media: DMEM, DMEM containing authentic Ex4, DMEM containing WT S. cerevisiae (Yeast-WT), or DMEM containing Ex4-secreting S. cerevisiae (Yeast-Ex4). The concentration of yeast cells was set to be 9.1 × 10^6 cells/mL. CMFDG was added in the media to realize a concentration of 50 µM. After encapsulation, the droplets were incubated at 30 °C for 6 h. Fluorescence intensity of each droplet was calculated by image analysis under a confocal laser scanning fluorescence microscope.

[6] = tested on: human GLP1R (hGLP1R); experiment: Co-culture of floating hGLP1R/LacZ-293 and ligand-secreting yeast cells; format: cell-based; conditions: co-culture with yeast cells secreting Ex4 (4.5 × 10^5 cells/50 µL) vs WT yeast, RPMI-1640, 50 µM CMFDG, 37 °C, 12 h, n = 3, Fig. 3b
Description: Saccharomyces cerevisiae BY4742 [MATα, his3Δ1, leu2Δ0, lys2Δ0, ura3Δ0] (GE Healthcare) was used for the secretion of a hGLP1R agonist, Exendin-4 (Ex4, produced by the Gila monster[31]) and randomized Ex4 variants. To construct an Ex4-secretory yeast, pULS-Ex4[13] was transformed into the BY4742 strain using the Frozen-EZ Yeast Transformation-II Kit (Zymo Research, Orange, CA, USA). Yeast cells secreting randomized Ex4 variants were constructed using gap repair cloning[34] as follows. pULS plasmid[13] was digested with EcoRI and KpnI to obtain a linear vector fragment. Insert DNA fragments encoding Ex4 genes whose two N-terminal amino acids were randomized were PCR-amplified from pULS-Ex4 using the following primers: 5′-[…]-3′ and 5′-[…]-3′. The BY4742 strains were transformed using the linear vector fragments (500 ng) and the randomized insert fragments (250 ng) for gap repair cloning. […]
Co-culture of floating hGLP1R/LacZ-293 and ligand-secreting yeast cells was carried out using the following procedure. […] Immediately after the modification, the solution was incubated in a 96-well plate at 37 °C for 12 h, and fluorescence intensity was measured.

[7] = 30 nM authentic Ex4 vs 0 nM, mean ± SD (n = 3), two-tailed Student's t-test, Fig. 2a
[8] = culture supernatants of Ex4-secretory yeast (yeast-Ex4) vs WT yeast, n = 3, Fig. 2b

## exendin-4 [Ex4]
[1]
  fluorescence (LacZ reporter): significant increase in fluorescence
[2]; [7]
  reporter signal (NanoLuc luminescence): significant reporter signals in both lines
[2]; [8]
  reporter signal (NanoLuc luminescence): significant reporter signals in both lines
[3]
  agonist strength at GLP1R: very strong agonist
[4]; [7]
  reporter signal (LacZ fluorescence): significant reporter signals in both lines
[4]; [8]
  reporter signal (LacZ fluorescence): significant reporter signals in both lines
[5]; 30 nM authentic Ex4, 30 °C
  overlap of box plots of droplet fluorescence, "Ex4" vs "no ligand": partially overlapped
[5]; 30 nM authentic Ex4 vs no ligand, two-tailed Student's t-test
  fluorescence intensity of droplets: significant increases in fluorescence intensity
[5]; yeast cells secreting Ex4 (9.1 × 10^6 cells/mL) vs Yeast-WT
  fluorescence intensity of droplets: significant increases in fluorescence intensity
[6]
  fluorescence (LacZ reporter): significant increase in fluorescence
